Data taken from a melting point compilation (Tetko et al.; mined from patent text by program, amines drawn as free bases though some values may be those of a salt).

melting point [°C]	SMILES
142 to 143	CC(=O)C1CCC2C3CCC4CC(OS(C)(=O)=O)CCC4(C)C3C(OC(=O)CI)CC12C (stereo not drawn)
135 to 140	Cc1nc(-c2ccc(CCN3CCN(c4nsc5ccccc45)CC3)cc2)cs1
209 to 211	CCOC(=O)NC(C(=O)NN(Cc1ccc(-c2nccs2)cc1)CC(O)C(Cc1ccccc1)NC(=O)C(NC(=O)OC)C(C)CC)C(C)C (stereo not drawn)
195 to 200	C=CCNc1ccc(C(=O)O)cc1[N+](=O)[O-]
96 to 97	CN(C)CCCn1c(-c2ccc(C#N)cc2)cc2c1CCCCC2
248 to 251	COc1ccc(C(=O)Nc2ccccc2)c2c1OCC2CC(=O)O (stereo not drawn)
188 to 191	O=C(c1ccccc1)N1CCc2nnc(NN=C3CCCCC3)cc2C1
215 to 216	CS(=O)(=O)Nc1cc2occ(Br)c(=O)c2cc1Oc1ccccc1
99.1	CCCCOc1ccc(-c2ncc(C(=O)OCC)cn2)cc1
154 to 155	COc1ccccc1C(=O)NCCc1ccc(CC(=O)O)cc1
188 to 190	CCc1cc(-c2cccnc2)nn1-c1ccc(NC(=O)c2cccnc2)cc1
50 to 57	CC1(C)CC(OC(=O)c2ccccc2)CC(C)(C)N1OC(=NC1CCCCC1)NC1CCCCC1
137 to 140	CCOCc1nc2c(N)nc3ccccc3c2n1NCC(C)C
201 to 204	Cc1ccsc1C(=O)Nc1ccc(C(=O)N2Cc3ccccc3Cc3ccccc32)cc1
148 to 150	O=C(CC(=O)c1ccccc1C(=O)O)c1ccc(Cl)cc1
158 to 161	OC(COc1ccn(-c2ccc(Cl)c(Cl)c2)n1)CN1CCOCC1 (stereo not drawn)
147 to 149	O=[N+]([O-])c1cc(-c2ccco2)ccc1Nc1cccc(-n2ccnc2)c1
91 to 93	CC1(C)OCc2cc(CCNC(=O)C(F)(F)F)ccc2O1
170	O=C(OCCO)c1nc(Cl)c(Cl)[nH]1
226 to 227	CCCc1nc2c(N)nc3cccnc3c2n1CC1(O)CCC1
156 to 158	COc1ccc2[nH]c(C)c(C(C)=O)c2c1
124 to 126	CC(=O)OC1O[C@H](CC#N)[C@@H](OC(=O)c2ccccc2)[C@H]1OC(=O)c1ccccc1 (stereo partly drawn)

melting point [°C]	SMILES
78 to 80	C#Cc1cnc2ccc(OC(SC)C(=O)NC(C)(C#N)CO)cc2c1 (stereo not drawn)
280 to 282	COCC1COc2cc3ncnc(Nc4cccc(C(F)(F)F)c4)c3cc2O1 (stereo not drawn)
108 to 114	Cc1onc(NS(=O)(=O)c2ccccc2-c2ccc(-c3ncccn3)cc2Cn2ccc(C(F)(F)F)n2)c1C
188 to 190	CC(C)(C)c1ccc(Sc2cccc(C=C3SC(=S)NC3=O)c2)cc1
160	COc1cccc(C(=O)c2cccc(C(=O)O)c2)c1
50 to 51	CC(C)c1ccc(CCCC(=O)O)cc1
172 to 173	C[C@]1(COc2ccc(N3CCC(COCc4ccc(C(F)(F)F)cc4)CC3)cc2)Cn2cc([N+](=O)[O-])nc2O1
139 to 140	COc1ccccc1N1CCN(CCCOc2ccc(-c3nnco3)cc2)CC1
165 to 167	O=C(c1cc(Cl)ccc1NC(c1ccccc1)(c1ccccc1)c1ccccc1)C(F)(F)F
122 to 124	CCCCc1oc2ccccc2c1-c1ncc(-c2ccc3cc(OC(Cc4ccccc4)C(=O)OC)ccc3c2)o1 (stereo not drawn)
178 to 180	CC(=O)OC1CSC(Oc2ccc(-c3ccc(C(F)(F)F)cc3)nc2)C(OC(C)=O)C1OC(C)=O (stereo not drawn)
144	CC(C)C(=O)Oc1ccc(C(=O)c2ccc(OC(=O)C(C)C)cc2)cc1
148 to 149	CN1c2ccc(C#CCOC3CCCCO3)cc2C(O)=C(C(=O)NCc2ccc(Cl)cc2)S1(=O)=O (stereo not drawn)
> 250	CC(C)(C)OC(=O)N1CCC(c2ccc3[nH]c(=O)[nH]c3c2)CC1
188 to 190	CCOC(=O)C[C@H]1O[C@H](c2cccc(OC)c2OC)c2cc(Cl)ccc2N(CC(C)(C)CO)C1=O
113	Cc1cc(-n2ccnc2)c2cccc(OCc3c(Cl)ccc(S(=O)(=O)N4CCC[C@H]4C(=O)NCC4CCN(Cc5ccncc5)CC4)c3Cl)c2n1
166 to 170	COC(=O)c1cn(C)c2cc(OC)c(C(F)(F)F)cc12
139 to 140	CC(C)c1nn(-c2ccc(C(F)(F)F)cn2)cc1CCCOc1cc(CCC(=O)O)n(-c2ccccc2)n1
227 to 229	CC(=O)c1ccc(Cc2cn(-c3ccc(F)cc3)c3ncccc3c2=O)cc1
266 to 267	N#Cc1ccc2cc(CCc3cc4ccc(C#N)cc4o3)oc2c1
203 to 207	CC1(C2CCC3C4CC=C5CC(O)CC(O)C5(C)C4CCC32C)OCCO1 (stereo not drawn)
148 to 154	CN1C(=O)CC(c2c(-c3ccc[nH]3)[nH]c3ccc(O)cc23)C1=O (stereo not drawn)

melting point [°C]	SMILES
160 to 162	COc1ccc(C=CC=Cc2ccccc2)cc1
205	Nc1cccc(-c2ccc(-c3ccc(CCN4CC5C(N)C5C4)cc3)cc2)n1 (stereo not drawn)
137 to 139	Cc1nc2c(C=O)cccn2c1Br
97 to 99	COc1cc(NCCCCCCN2CCN(C(=NC#N)SC)CC2)c2nccc(C)c2c1
94	CCCCS(=O)(=O)Oc1ccc(CCOc2ccc(/C=C(\OCC)C(=O)O)cc2OC)cc1
126 to 127	CNc1cc(S(=O)(=O)c2ccc(N)cc2)cc(C)n1
154 to 157	Oc1ccc(C(=C(c2ccccc2)C(F)(F)F)c2ccc(OCCN3CCOCC3)cc2)cc1
178 to 180	Cc1c(CC(=O)O)c2cc(OCc3csc(-c4ccccc4)n3)ccc2n1Cc1csc(-c2ccc(Cl)cc2)n1
74 to 76	COC(=O)c1sccc1N=NN(C)C
210	CC(=O)Nc1cc(F)ccc1C(=O)NCCN1CCC(n2c(=O)[nH]c3ccccc32)CC1
139 to 140	CSc1ccc(C(=O)Cc2ccc(F)cc2)cc1
53 to 55	CCCCCCCCCCCCCCCCCCOCC(O)COC(c1ccccc1)(c1ccccc1)c1ccccc1 (stereo not drawn)
161 to 162	Cc1c(NC(=O)c2ccc(-c3ccc(F)cc3)c(F)c2)ccc2cc(CN3CCCCC3)cnc12
106	COc1ccc(Cn2ccn(CC(=O)c3ccc(OC)c(OC4CCCC4)c3)c2=O)cc1
75 to 77	CC1(C)COc2ccc(OS(C)(=O)=O)cc21
166 to 167	COc1cccc2c1OC1C=CC=C3C(=O)N(CC4CC4)C(=O)CC321 (stereo not drawn)
229 to 230	COc1ccc2c(c1)NC(=O)N(c1ccc(Cl)cc1)S2(=O)=O
77 to 78	CN(C(=O)OC(C)(C)C)[C@@H](Cc1ccc(O)cc1)C(=O)N1CCN(c2ccc(Cl)c(Cl)c2)CC1
204 to 205	CCn1c(=O)[nH]c2ncn(CC)c2c1=O
207 to 209	CN(C)S(=O)(=O)c1cn(C)c2cc(Cl)ccc2c1=O
243 to 249	COc1ccc(-c2cc3ncnc(Nc4ccc5[nH]ccc5c4)c3s2)cn1

SMILES	melting point [°C]
O=NCNC1=Nc2ccc(Br)cc2C(c2ccccn2)=NC1	102 to 106
CC1(C)C(=O)N(c2ccc(C#N)c(C(F)(F)F)c2)C(=O)N1Cc1ccccc1Br	56 to 58
Cc1c2c(c(-c3ccccc3)n1C)N(C)C(=O)CN=C2c1ccccc1	232 to 234
